Test results: US10954549B2, “Detection and classification of an anticoagulant using a clotting assay” (Haemonetics Corporation, priority 2014, dated 2021)

Tests used:
Type in all cases: biochemical, human
[1] = tested on: citrated whole blood; assay: RapidTEG (rTEG) test of blood spiked with anticoagulant; conditions: for TEG ACT parameter versus control group: all tested concentrations (except rivaroxaban 22 ng/mL)
Excerpt: (§1) The TEG clotting assay was used to determine if low, normal, and high doses of dabigatran, rivaroxaban, and apixaban could be detected in blood spiked with these compounds. Three oral anticoagulants (OAC), namely dabigatran, rivaroxaban, and apixaban, were spiked into blood obtained from 14 healthy volunteer human donors. For each OAC tested, citrated blood from three donors was spiked with three different concentrations of the active drug (i.e., the compound). The spiked blood samples and control samples spiked with diluent were tested with the TEG® 5000 Thrombelastograph® Hemostasis Analyzer (Haemonetics Corporation, Braintree, Mass., USA) using the Kaolin and RapidTEG® reagents (Haemonetics). Each sample was run in triplicate. All samples were tested with and without ecarin (purchased from Enzyme Research Laboratories, South Bend, IN). This study was IRB approved and all donors were over 18 and signed informed consent forms.
The RapidTEG (rTEG) test incorporated both tissue factor and kaolin to generate the conventional kaolin parameters as well as the TEG-ACT parameter, which is measured in seconds. The TEG-ACT is equivalent to the Activated Clotting Time (see Chavez J. J. et al., Anesth. Analg. 99:1290-1294, 2004) and has a normal range of 86 to 118 seconds. A prolonged TEG-ACT time indicates slower clot formation. In addition, velocity curves derived from the above mentioned kaolin and rTEG tests were plotted using TEG software. These curves represent the speed of clot propagation (MRTG, Maximum Rate of Thrombus Generation; and TMRTG, Time to Maximum Rate of Thrombus Generation) (see FIG. 3B).
For the RapidTEG (rTEG) test, the reagent was reconstituted with 20 μL diluent water, and allowed to stand for 5 minutes per manufacturer instructions. Ten μL of this reconstituted reagent was added to the TEG cup with 20 μl 0.2M CaCl2 for recalcification.
340 μL of the citrated blood sample was added to the cup with these two reagents, and the contents of the cup were mixed 3 times by drawing the contents of the cup up into the pipette and redispensing it into the cup. The test was started immediately after mixing and allowed to run until the MA parameter had defined. The rTEG with ecarin test was performed as the rTEG test above, using 20 μL of an ecarin/CaCl2 solution (0.16M CaCl2; 19EU/mL ecarin).

[2] = tested on: blood from healthy volunteers; assay: Thromboelastography R time of spiked blood in the presence of the FXa reagent; conditions: in vitro spiking, increasing concentrations
Method: Blood from healthy volunteers known not to be taking any oral anticoagulant and without any other significant health issues are analyzed using the FXa or the Ecarin reagent in a TEG® hemostasis analyzer. The FXa reagent (i.e., the Factor Xa reagent) is used to detect the presence (or absence) of an anticoagulant in the blood component being tested. In absence of any oral anticoagulant, the FXa reagent will accelerate the clotting process and result in a very short R-time. In presence of direct thrombin inhibitors and/or anti-Factor Xa anticoagulant(s), the process is slowed down and will cause elongation of the R-time. This difference in R-time is utilized to detect the presence of the oral anticoagulant. The R-time generated from multiple donors was used to construct a reference range. Blood was spiked with either direct thrombin inhibitors or anti-Xa(s) at different concentrations and analyzed using the FXa reagent or the Ecarin reagent. The drug concentrations chosen represent the published therapeutic ranges for these two classes of drugs. This assay was repeated in multiple donors to account for possible donor variations.

[3] = tested on: citrated whole blood; assay: TEG Kaolin test of blood spiked with anticoagulant; conditions: for R value versus control reference range: reference range about 5 to about 10 minutes; for MA values versus control: all studied concentrations; for MRTG / TMRTG: Kaolin; for R, K, α, and MRTG parameters, statistical significance versus control: three concentrations per drug, Example 1
Excerpt: as §1
Dabigatran stock was prepared from the active dabigatran moiety (Alsachim, France) by dissolution in 0.1M HCl and further dilution in 1:1 DMSO:H20. […] Tubes of citrated blood were spiked with this dabigatran stock to create final concentrations of 500, 200, and 50 ng/mL of citrated whole blood.
Rivaroxaban stock was prepared by agitation of a 20 mg Xarelto tablet (Jannsen, Titusville, N.J.) in a 1:1 DMSO: H20 solution, which was diluted to a final concentration of 20 ng/uL rivaroxaban in 1:1 DMSO:H20. Tubes of citrated blood were spiked with this rivaroxaban stock to create final concentrations of 500, 89, and 22 ng/mL in citrated whole blood. […] Apixaban stock was prepared in a similar manner from a 2.5 mg Eliquis tablet (Bristol-Myers Squibb, New York, N.Y.), with final concentrations of 1000, 500, and 250 ng/mL in whole blood. Apixaban is approved for prevention of VTE in elective hip or knee replacement surgery (2.5 mg BID) and for prevention of stroke and systemic embolism in patients with non-valvular AF (5 mg BID) (see Bristol-Myers SP, EEIG. apixaban summary of product characteristics). […] Control samples, prepared for each tested drug, included a solvent control containing only citrated blood and the diluent used to dilute the drug stock, and an unadulterated citrate blood tube.
Testing was performed on TEG-5000 analyzers (Haemonetics Corp., Braintree, Mass., USA) using Kaolin vials, 0.2M CaCl2, RapidTEG (rTEG) vials, diluent water, and disposable clear cups and pins provided by the manufacturer (Haemonetics, Braintree, Mass.), and ecarin (Enzyme Research Laboratories, South Bend, Ind.). All testing was performed in triplicate at each dose, and allowed to continue until the MA (maximum amplitude) parameter defined. The various components of the TEG tracing are depicted in FIG. 3A. The Kaolin test generates an R parameter, which is measured in minutes, and is the time elapsed from the initiation of the test until the point where the onset of clotting provides enough resistance to produce a 2 mm amplitude reading on the TEG tracing. This parameter represents the initiation phase of coagulation related to the function of enzymatic clotting factors. The R parameter has a normal range of 5 to 10 min for kaolin. A prolonged R time indicates slower clot formation. K is a measurement of the time interval from the split point to the point where fibrin cross-linking provides enough clot resistance to produce a 20 mm amplitude reading. The α angle is the angle formed by the slope of a tangent line traced from the R to the K time and a central line measured in degrees. K time and the α angle denote the rate at which the clot strengthens, and is representative of thrombin's cleaving of the available fibrinogen into fibrin. The MA indicates the point at which clot strength reaches its maximum amplitude, measured in millimeters on the TEG tracing, and reflects the end result of maximal platelet-fibrin interaction via the GPIIb-IIIa receptors (see Khurana S et al., J Lab Clin Med. 130:401-411, 1997). […]

[4] = blood spiked with 50 ng/ml dabigatran
[5] = blood spiked with 200 ng/ml dabigatran
[6] = blood spiked with 500 ng/ml dabigatran

dabigatran
TEG ACT parameter, distinguishing between concentrations [1]: good dose response curve | TMRTG parameter sensitivity to presence of drug [1]: sensitive to the presence | K parameter versus control ([1]; 200 ng/mL and 50 ng/mL): statistically different from control | K parameter versus control ([1]; 500 ng/mL): not for the concentration of 500 ng/mL | α parameter versus control ([1]; 500 ng/mL and 50 ng/mL): statistically different from control | MA values versus control group ([1]; 500 ng/mL, still within normal range): significantly different from the control group | MRTG parameter sensitivity ([1]; 500, 200, 50 ng/mL): sensitive to the two lowest concentrations | TMRTG parameter between concentrations ([1]; 500 vs 200 ng/mL, 200 vs 50 ng/mL): able to differentiate between concentrations | K and α parameters, highest concentration versus other concentrations ([1]; 500 vs 200 ng/mL, 500 vs 50 ng/mL): able to differentiate | ACT time versus non-spiked blood sample ([1]; all concentrations): significantly higher | TEG ACT parameter versus control group [1]: significantly different | R-time compared to the reference range, FXa reagent [2]: dose dependent elongation of the R-time | R value versus control reference range ([3]; 50 ng/ml (lowest dosage)): outside of the normal (i.e., control) reference range | R value, dose dependence ([3]; 50, 200, 500 ng/ml): increases the R value of the tested blood components in a dose dependent manner | R, α, and TMRTG parameters between concentrations ([3]; 500, 200, 50 ng/mL): significantly different between all concentrations | R time versus non-spiked blood sample ([3]; all doses): significantly higher | MA values versus control [3]: did not change | MRTG [3, 4]: 13 mm/min | TMRTG [3, 4]: 13 min | MRTG [3, 5]: 12 mm/min | TMRTG [3, 5]: 18 min | MRTG [3, 6]: 7 mm/min | TMRTG [3, 6]: 22 min | R, K, α, and MRTG parameters, statistical significance versus control [3]: able to detect the presence of all tested concentrations

O=C(NC[C@H]1CN(c2ccc(N3CCOCC3=O)cc2)C(=O)O1)c1ccc(Cl)s1 [rivaroxaban, Rivaroxaban]
K, α and MRTG parameters versus control or between studied concentrations [1]: did not show any statistical difference | TEG ACT parameter, distinguishing between concentrations [1]: good dose response curve | TMRTG parameter sensitivity to presence of drug [1]: sensitive to the presence | MA values versus control ([1]; all studied concentrations): did not change | TEG ACT parameter versus control group [1]: significantly different | ACT time versus non-spiked blood sample ([1]; medium and higher concentrations): significantly higher | R-time compared to the reference range, FXa reagent [2]: dose dependent elongation of the R-time | R value versus control reference range ([3]; 500 ng/ml (highest dosage)): outside of the normal (i.e., control) reference range | MA values versus control [3]: did not change | R time versus non-spiked blood sample ([3]; highest concentration tested): significantly higher | R value versus control reference range ([3]; lower two doses (22 and 89 ng/ml)): within the control reference range | R, K, α, and MRTG parameters, statistical significance versus control [3]: only achieved statistical significance for the higher concentrations
